Experimental data from PubChem BioAssay (NCI).
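Growth conditions: 96-well plates. Treatment: test compound, 48 hours, 5 concentrations. Analysis: linear interpolation between bracketing concentrations; unreached endpoints set to highest concentration. The concentration for 50% growth inhibition is given as GI50. TGI: concentration producing complete growth inhibition.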

Legend:
Experiment in all cases: NCI tumour cell line growth inhibition, 48 h
A498 renal = system: A498 renal
ACHN renal = system: ACHN renal
HCT-15 colon = system: HCT-15 colon
K-562 leukemia = system: K-562 leukemia
LOX IMVI melanoma = system: LOX IMVI melanoma
MALME-3M melanoma = system: MALME-3M melanoma
MOLT-4 leukemia = system: MOLT-4 leukemia
OVCAR-4 ovarian = system: OVCAR-4 ovarian
SK-MEL-28 melanoma = system: SK-MEL-28 melanoma
SK-MEL-5 melanoma = system: SK-MEL-5 melanoma
MCF7 breast = system: MCF7 breast
TK-10 renal = system: TK-10 renal

SMILES | TGI (A498 renal) [µM] | TGI (ACHN renal) [µM] | TGI (HCT-15 colon) [µM] | TGI (K-562 leukemia) [µM] | TGI (LOX IMVI melanoma) [µM] | TGI (MALME-3M melanoma) [µM] | TGI (MOLT-4 leukemia) [µM] | TGI (OVCAR-4 ovarian) [µM] | TGI (SK-MEL-28 melanoma) [µM] | TGI (SK-MEL-5 melanoma) [µM] | TGI (MCF7 breast) [µM] | TGI (TK-10 renal) [µM] | GI50 (A498 renal) [µM] | GI50 (ACHN renal) [µM] | GI50 (MOLT-4 leukemia) [µM] | GI50 (OVCAR-4 ovarian) [µM] | GI50 (MCF7 breast) [µM]
CN1C(=O)N(c2nc3ccccc3[nH]2)C(C)(C)C1=O | > 100 | > 100 | > 100 | > 100 | > 100 | > 100 | > 100 | > 100 | > 100 | > 100 |  |  |  |  |  |  | 
CC(=O)c1cccc(Nc2nc3ccccc3c3[nH]c4ccccc4c23)c1 |  | 40.5 | > 100 | > 100 |  | 13.2 |  |  |  |  | 4.22 | 37 |  |  |  |  | 
CC1OC(CC2C=CCc3c(O)c4c(c(O)c32)C(=O)c2ccccc2C4=O)CC(NC(=O)C(F)(F)F)C1O (stereo not drawn) | 16.5 | 25.1 | 55.9 | 20.6 | 20.6 | 10.1 | 22.5 | 11.7 | 16.1 | 27.3 |  | 10.9 |  |  |  |  | 
CC12CCC(=O)[C@@]1(C)CCCC2O (stereo partly drawn) |  | > 100 | > 100 | > 100 | > 100 | > 100 | > 100 | > 100 | > 100 | > 100 | > 100 | > 100 |  |  |  |  | 
COC(=O)C(C#N)C1NC(=O)c2ccccc21 (stereo not drawn) | > 100 | > 100 | > 100 | > 100 | > 100 | > 100 | > 100 | > 100 | > 100 | > 100 |  | > 100 |  |  |  |  | 
CC1=NNC(=O)C1C1C=C(c2c[nH]c3ccccc23)OC1=O (stereo not drawn) | > 100 | > 100 | > 100 | > 100 | > 100 | > 100 | > 100 |  | > 100 | > 100 |  | > 100 |  |  |  |  | 
Clc1ccc(N2N=C(c3cccc(Nc4ccncc4)c3)CC2c2ccc(Br)cc2)cc1 (stereo not drawn) | 2.3 | 3.06 |  |  |  |  | 6.17 | 3.36 |  |  |  |  | 1.07 | 1.7 | 2.34 | 1.83 | 
Cc1ccc(O)c(C2=NNC(c3cccc(Cl)c3)C2)c1 (stereo not drawn) |  | > 100 | 29.3 | > 100 | > 100 | > 100 | > 100 | 94 |  | > 100 | > 100 | > 100 |  |  |  |  | 
C/C(=C\CC/C=C(\C)CC/C=C(\C)CCC1SC1(C)C)CC/C=C(\C)CCC1OC1(C)C (stereo not drawn) | > 100 | > 100 | > 100 | > 100 |  | > 100 | > 100 | > 100 | > 100 | > 100 |  | > 100 |  |  |  |  | 
CC(=O)OCC1OC(n2c(O)c(N=NC(N)=S)c3ccc([N+](=O)[O-])cc32)C(OC(C)=O)C1OC(C)=O (stereo not drawn) |  | > 100 | > 100 | > 100 | 43.1 | > 100 | 54.9 | 43.3 | > 100 | > 100 |  | > 100 |  |  |  |  | 
O=C(NC(CCCCN1C(=O)c2ccccc2C1=O)P(=O)(Oc1ccccc1)Oc1ccccc1)OCc1ccccc1 (stereo not drawn) |  | > 100 |  |  |  | > 100 |  |  | > 100 | > 100 | > 100 | > 100 |  |  |  |  | 
Oc1ccc(/C=N/c2nccs2)c(O)c1 |  | > 100 | > 100 |  | > 100 | > 100 |  |  |  | > 100 | > 100 | > 100 |  |  |  |  | 
COc1cc([C@@H]2c3cc4c(cc3[C@@H](NC(=O)NO)[C@H]3COC(=O)[C@H]23)OCO4)cc(OC)c1O | > 100 |  | > 100 | > 100 | > 100 |  | > 100 | > 100 |  |  | > 100 | > 100 |  | 6.04 | 4.87 |  | 7.84
CCOC(OC1=C(C#N)CCCC1)C(CC)[Se]c1ccccc1[N+](=O)[O-] (stereo not drawn) | > 100 | 80.7 | 37.1 | > 100 | 30.9 | > 100 | 71.2 | 35.1 | 89.9 | 28.7 |  | > 100 |  |  |  |  | 
O=C1c2c(O)cccc2Cc2cc(CO)cc(O)c21 | 17.8 | 12.4 | 11.3 | > 100 |  | 5.37 | 57.9 | 14.4 | 27.3 | 3.75 |  | 14.9 |  |  |  |  | 
CCOC(=O)c1ccn2c(c1)c(C#N)c1nc3ccccc3nc12 | > 100 | > 100 | > 100 | > 100 | > 100 | > 100 | 50.6 | > 100 | > 100 | > 100 |  | > 100 |  |  |  |  | 
